Experimental data published in US20230278984A1 (Global Blood Therapeutics, Inc., priority 2020, published 2023).

Target: T1, Human pyruvate kinase R (PKR) (Homo sapiens, UniProt P30613)
T1 construct: Human pyruvate kinase R (PKR), residues 14-574; 6x-His (N, cleaved yes); 8x-Arg (N, cleaved yes); SUMO (N, cleaved yes); host or cells: E. coli
Assay: Biochemical assay for activation of pyruvate kinase R (Kinase-Glo luminescence measurement of ATP generation)
Conditions: for AC50: PKR biochemical assay, 0.1 nM PKR, 0.3 mM ADP, 2 mM FBP, 0.1 mM PEP; for Emax: maximal activation level relative to the activation level achieved by the literature compound AG-348 @ 10 μM
Experimental: Human pyruvate kinase R (PKR), residues 14-574, and human pyruvate kinase M2, residues 1-531, were cloned into expression plasmids and obtained from ATUM Bio (Newark, Calif.). Proteins were translated as fusions with 6×-His, 8×-Arg, and SUMO at the N-terminus. A third construct of human PKR was truncated, residues 50-574, and similarly cloned for use in crystallography experiments. All proteins were cloned, expressed in E. coli, and purified using similar protocols. Cells were grown at 30° C. in Luria-Bertani broth supplemented with 0.4% glucose to OD600=0.8 and induced with 0.4 mM IPTG at 16° C. for 18 hours. Cells were harvested by centrifugation, resuspended in 50 mM potassium phosphate pH 8.0, 500 mM NaCl, 25 mM imidazole pH 8.0, and 3 mM (3-mercaptoethanol. Cells were lysed using a LM20 microfluidizer from Microfluidics (Westwood, Mass.). The crude lysate was immediately supplemented with 0.2 mM phenylmethylsulfonyl fluoride (PMSF) and centrifuged at 20,000 g for 20 minutes. The soluble fraction was subsequently incubated with 2 mL Ni-NTA (GE Healthcare) per 1,000 ODs for 1 hour at 4° C. Following incubation with the Ni-NTA resin, lysate was removed by pelleting resin at 2,500 g for 3 minutes and washed 3 times with 9 bed volumes of 50 mM potassium phosphate pH 8.0, 500 mM NaCl, 25 mM imidazole, and 3 mM 3-mercaptoethanol. Following the batch wash Ni-NTA resin was loaded onto a gravity column and His-tagged protein was eluted with 6 bed volumes of 10 mM Tris/HCl pH 8.0, 200 mM NaCl, 500 mM imidazole, and 3 mM (3-mercaptoethanol. Eluted protein was dialyzed overnight against 10 mM Tris/HCl pH 8.0, 200 mM NaCl, and 1 mM DTT and the 6×-His-8×-Arg-SUMO-tag was cleaved using a 20:1 molar ratio of protein:3C protease. The protein was purified by anion exchange chromatography on a HiTrapQ or MonoQ 10/100 GL column (GE Healthcare) via a linear NaCl gradient and twice by size exclusion chromatography using a Superdex S200 26/60 column (GE Healthcare) run in 10 mM Tris/HCl pH 8.0, 200 mM NaCl, 10 mM MgCl2, 1 mM DTT. Proteins were concentrated to −12 mg/mL for crystallization and flash frozen for storage.
Biochemical Assay for Activation of Pyruvate Kinase R
Activation of pyruvate kinase R (PKR) and pyruvate kinase M2 (PKM2) were measured using a luminescence based measurement of ATP generation and the Kinase-Glo luminescent kinase reagent kit.

T1 sequence (P30613 14-574): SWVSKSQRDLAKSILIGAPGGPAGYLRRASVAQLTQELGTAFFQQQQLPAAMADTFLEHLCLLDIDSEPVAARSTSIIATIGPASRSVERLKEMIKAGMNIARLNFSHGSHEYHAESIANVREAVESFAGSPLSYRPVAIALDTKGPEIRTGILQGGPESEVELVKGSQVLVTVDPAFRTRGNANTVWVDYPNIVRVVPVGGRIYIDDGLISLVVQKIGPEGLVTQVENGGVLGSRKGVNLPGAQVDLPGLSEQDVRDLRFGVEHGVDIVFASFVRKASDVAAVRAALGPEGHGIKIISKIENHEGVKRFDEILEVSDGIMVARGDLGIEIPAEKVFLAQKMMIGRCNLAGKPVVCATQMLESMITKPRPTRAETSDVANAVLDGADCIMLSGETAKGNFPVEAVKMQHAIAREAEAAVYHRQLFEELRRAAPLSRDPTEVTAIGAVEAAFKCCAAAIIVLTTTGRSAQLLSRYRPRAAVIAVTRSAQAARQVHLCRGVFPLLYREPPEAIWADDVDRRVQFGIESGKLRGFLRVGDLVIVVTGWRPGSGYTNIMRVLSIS

AC50 [nM] | Emax [%] | Structure (SMILES)
1200 | 29 | CN(Cc1ncnn1-c1ccc(Cl)c(F)c1)C(=O)N(C)Cc1ncnn1-c1ccc(Cl)c(F)c1 [Compound 28, 1,3-bis({[1-(4-chloro-3-fluorophenyl)-1H-1,2,4-triazol-5-yl]methyl})-1,3-dimethylurea]
110 | 78 | Cc1ccc2ccc(-n3ncnc3CNC(=O)NCc3nc(C)nn3-c3ccc(Cl)c(F)c3)cc2n1 [Compound 29, 3-{[1-(4-chloro-3-fluorophenyl)-3-methyl-1H-1,2,4-triazol-5-yl]methyl}-1-{[1-(2-methylquinolin-7-yl)-1H-1,2,4-triazol-5-yl]methyl}urea]
18 | 48 | CCN(Cc1ncnn1-c1ccc(Cl)c(F)c1)C(=O)NCc1ncnn1-c1ccc(Cl)c(F)c1 [Compound 30, 1,3-bis({[1-(4-chloro-3-fluorophenyl)-1H-1,2,4-triazol-5-yl]methyl})-1-ethylurea]
14 | 76 | O=C(NCc1ncnn1-c1ccc(Cl)c(F)c1)NCc1nnnn1-c1ccc(Cl)c(F)c1 [Compound 31, 3-{[1-(4-chloro-3-fluorophenyl)-1H-1,2,3,4-tetrazol-5-yl]methyl}-1-{[1-(4-chloro-3-fluorophenyl)-1H-1,2,4-triazol-5-yl]methyl}urea]
210 | 74 | CN(Cc1nnnn1-c1ccc(Cl)c(F)c1)C(=O)NCc1ncnn1-c1ccc(Cl)c(F)c1 [Compound 32, 1-{[1-(4-chloro-3-fluorophenyl)-1H-1,2,3,4-tetrazol-5-yl]methyl}-3-{[1-(4-chloro-3-fluorophenyl)-1H-1,2,4-triazol-5-yl]methyl}-1-methylurea]
9 | 67 | CN(Cc1ncnn1-c1ccc(Cl)c(F)c1)C(=O)NCc1nnnn1-c1ccc(Cl)c(F)c1 [Compound 33, 1-{[1-(4-chloro-3-fluorophenyl)-1H-1,2,3,4-tetrazol-5-yl]methyl}-3-{[1-(4-chloro-3-fluorophenyl)-1H-1,2,4-triazol-5-yl]methyl}-3-methylurea]
830 | 89 | O=C(NCc1ncnn1-c1ccc(Cl)c(F)c1)N(CCO)Cc1nnnn1-c1ccc(Cl)c(F)c1 [Compound 34, 1-{[1-(4-chloro-3-fluorophenyl)-1H-1,2,3,4-tetrazol-5-yl]methyl}-3-{[1-(4-chloro-3-fluorophenyl)-1H-1,2,4-triazol-5-yl]methyl}-1-(2-hydroxyethyl)urea]
3200 | 28 | O=C(NCc1ncnn1-c1ccc(Cl)c(F)c1)NCc1ncnn1-c1nc2cc(Cl)ccc2s1 [Compound 35, 1-{[1-(5-chloro-1,3-benzothiazol-2-yl)-1H-1,2,4-triazol-5-yl]methyl}-3-{[1-(4-chloro-3-fluorophenyl)-1H-1,2,4-triazol-5-yl]methyl}urea]
130 | 95 | CCN(Cc1ncnn1-c1ccc(Cl)c(F)c1)C(=O)NCc1nnnn1-c1ccc(Cl)c(F)c1 [Compound 36, 3-{[1-(4-chloro-3-fluorophenyl)-1H-1,2,3,4-tetrazol-5-yl]methyl}-1-{[1-(4-chloro-3-fluorophenyl)-1H-1,2,4-triazol-5-yl]methyl}-1-ethylurea]
55 | 53 | O=C(NCc1ncnn1-c1ccc(Cl)c(F)c1)N(CCF)Cc1ncnn1-c1ccc(Cl)c(F)c1 [Compound 38, 1,3-bis({[1-(4-chloro-3-fluorophenyl)-1H-1,2,4-triazol-5-yl]methyl})-1-(2-fluoroethyl)urea]
51 | 63 | Cc1nc(CNC(=O)NCc2ncnn2-c2ccc3ccncc3c2)n(-c2ccc(Cl)c(F)c2)n1 [Compound 39, 3-{[1-(4-chloro-3-fluorophenyl)-3-methyl-1H-1,2,4-triazol-5-yl]methyl}-1-{[1-(isoquinolin-7-yl)-1H-1,2,4-triazol-5-yl]methyl}urea]
150 | 73 | Cc1nc(CNC(=O)NCc2ncnn2-c2ccc3nccnc3c2)n(-c2ccc(Cl)c(F)c2)n1 [Compound 40, 3-{[1-(4-chloro-3-fluorophenyl)-3-methyl-1H-1,2,4-triazol-5-yl]methyl}-1-{[1-(quinoxalin-6-yl)-1H-1,2,4-triazol-5-yl]methyl}urea]
40 | 81 | Cc1nc(CNC(=O)NCc2ncnn2-c2ccc3ncccc3c2)n(-c2ccc(Cl)c(F)c2)n1 [Compound 41, 1-{[1-(4-chloro-3-fluorophenyl)-3-methyl-1H-1,2,4-triazol-5-yl]methyl}-3-{[1-(quinolin-6-yl)-1H-1,2,4-triazol-5-yl]methyl}urea]
540 | 74 | CC(C)c1nc(CNC(=O)NCc2ncnn2-c2ccc3cccnc3c2)n(-c2ccc(Cl)c(F)c2)n1 [Compound 42, 1-{[1-(4-chloro-3-fluorophenyl)-3-(propan-2-yl)-1H-1,2,4-triazol-5-yl]methyl}-3-{[1-(quinolin-7-yl)-1H-1,2,4-triazol-5-yl]methyl}urea]
100 | 84 | Cc1nc(CNC(=O)NCc2ncnn2-c2cnc3cccnc3c2)n(-c2ccc(Cl)c(F)c2)n1 [Compound 43, 1-{[1-(4-chloro-3-fluorophenyl)-3-methyl-1H-1,2,4-triazol-5-yl]methyl}-3-{[1-(1,5-naphthyridin-3-yl)-1H-1,2,4-triazol-5-yl]methyl}urea]
81 | 94 | Cc1nc(CNC(=O)NCc2ncnn2-c2ccc3c(c2)ncn3C)n(-c2ccc(Cl)c(F)c2)n1 [Compound 44, 1-{[1-(4-chloro-3-fluorophenyl)-3-methyl-1H-1,2,4-triazol-5-yl]methyl}-3-{[1-(1-methyl-1H-1,3-benzodiazol-5-yl)-1H-1,2,4-triazol-5-yl]methyl}urea]
110 | 80 | CCc1nc(CNC(=O)NCc2ncnn2-c2ccc3cccnc3c2)n(-c2ccc(Cl)c(F)c2)n1 [Compound 45, 1-{[1-(4-chloro-3-fluorophenyl)-3-ethyl-1H-1,2,4-triazol-5-yl]methyl}-3-{[1-(quinolin-7-yl)-1H-1,2,4-triazol-5-yl]methyl}urea]
38 | 74 | Cc1nc(CNC(=O)NCc2ncnn2-c2ccc3ncc(F)cc3c2)n(-c2ccc(Cl)c(F)c2)n1 [Compound 46, 3-{[1-(4-chloro-3-fluorophenyl)-3-methyl-1H-1,2,4-triazol-5-yl]methyl}-1-{[1-(3-fluoroquinolin-6-yl)-1H-1,2,4-triazol-5-yl]methyl}urea]
42 | 85 | Cc1nc(CNC(=O)NCc2ncnn2-c2cc(F)c3cccnc3c2)n(-c2ccc(Cl)c(F)c2)n1 [Compound 47, 1-{[1-(4-chloro-3-fluorophenyl)-3-methyl-1H-1,2,4-triazol-5-yl]methyl}-3-{[1-(5-fluoroquinolin-7-yl)-1H-1,2,4-triazol-5-yl]methyl}urea]
83 | 74 | Cc1nc(CNC(=O)NCc2ncnn2-c2ccc3cc(F)cnc3c2)n(-c2ccc(Cl)c(F)c2)n1 [Compound 48, 1-{[1-(4-chloro-3-fluorophenyl)-3-methyl-1H-1,2,4-triazol-5-yl]methyl}-3-{[1-(3-fluoroquinolin-7-yl)-1H-1,2,4-triazol-5-yl]methyl}urea]
150 | 79 | CCc1nc(CNC(=O)NCc2ncnn2-c2ccc3nccnc3c2)n(-c2ccc(Cl)c(F)c2)n1 [Compound 49, 1-{[1-(4-chloro-3-fluorophenyl)-3-ethyl-1H-1,2,4-triazol-5-yl]methyl}-3-{[1-(quinoxalin-6-yl)-1H-1,2,4-triazol-5-yl]methyl}urea]
32 | 64 | COC(=O)c1cc(-n2ncnc2CNC(=O)NCc2nc(C)nn2-c2ccc(Cl)c(F)c2)ccc1Cl [Compound 50, methyl 2-chloro-5-(5-{[({[1-(4-chloro-3-fluorophenyl)-3-methyl-1H-1,2,4-triazol-5-yl]methyl}carbamoyl)amino]methyl}-1H-1,2,4-triazol-1-yl)benzoate]
66 | 75 | Cc1nc(CNC(=O)NCc2ncnn2-c2ccc3c(cnn3C)c2)n(-c2ccc(Cl)c(F)c2)n1 [Compound 51, 1-{[1-(4-chloro-3-fluorophenyl)-3-methyl-1H-1,2,4-triazol-5-yl]methyl}-3-{[1-(1-methyl-1H-indazol-5-yl)-1H-1,2,4-triazol-5-yl]methyl}urea]
